Experimental data published in PMC9942839, “Structural remodeling of AAA+ ATPase p97 by adaptor protein ASPL facilitates posttranslational methylation by METTL21D” (Proceedings of the National Academy of Sciences of the …, 2023).
Numbering of substitutions follows the chain as printed.

Key:
[1] = target: T1, METTL21D in p97-ND1:ASPL-CΔ:METTL21D (Homo sapiens, UniProt Q9H867); assay: X-ray crystal structure, […] Å; assay type: binding; settings: METTL21D active site; crystallized with SAM, product of p97 Lys315 trimethylation; contacts Asp96, Trp126
T1 construct: gene VCPKMT; 1:1:1 heterotrimer ~110 kDa; METTL21D His tag cleaved by TEV; p97-ND1 fragment lacking D2 domain, Lys315 trimethylated; ASPL-CΔ residues 313-500; E. coli; with Transitional endoplasmic reticulum ATPase; Tether containing UBX domain for GLUT4

AtMETTL21D [2] = target: T2, AtMETTL21D (Arabidopsis thaliana, UniProt F4HUD6); assay: methylation assay, anti-monomethyl-lysine western blot; assay type: biochemical; settings: automethylation and monomethylation of AtCDC48 in the presence of PUX1; pH 8.0, RT
T2 construct: gene At1g08125; E. coli; His tag cleaved by TEV
T2 sequence (F4HUD6 15-239): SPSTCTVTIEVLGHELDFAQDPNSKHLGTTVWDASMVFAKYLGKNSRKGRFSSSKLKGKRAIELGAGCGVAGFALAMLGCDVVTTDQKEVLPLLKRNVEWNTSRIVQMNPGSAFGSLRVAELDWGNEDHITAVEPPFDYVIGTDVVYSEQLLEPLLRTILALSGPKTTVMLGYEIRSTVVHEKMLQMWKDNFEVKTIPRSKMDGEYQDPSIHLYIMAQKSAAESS

AtMETTL21D [3] = target: T3, AtMETTL21D (Arabidopsis thaliana, UniProt F4HUD6, C19S/L26V, form not given); assay: methylation assay, anti-Kme3 western blot; assay type: biochemical; settings: co-substrate AtCDC48; weak gain of trimethylation; 20 mM HEPES pH 8.0, 200 mM NaCl, RT
T3 construct: gene At1g08125; E. coli; His tag cleaved by TEV
T3 sequence (F4HUD6 15-239 C19S/L26V): T2 sequence (F4HUD6 15-239) with C5S, L12V

T1 sequence (Q9H867 2-229 limits assumed, stated change not applied): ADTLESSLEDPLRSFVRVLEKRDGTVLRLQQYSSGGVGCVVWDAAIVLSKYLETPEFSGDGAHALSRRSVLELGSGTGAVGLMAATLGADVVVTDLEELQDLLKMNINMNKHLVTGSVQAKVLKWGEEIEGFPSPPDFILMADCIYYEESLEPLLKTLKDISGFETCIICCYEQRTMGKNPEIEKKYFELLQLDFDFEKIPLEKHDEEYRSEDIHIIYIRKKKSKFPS
T1 sequence (P55072 2-480 partner limits assumed): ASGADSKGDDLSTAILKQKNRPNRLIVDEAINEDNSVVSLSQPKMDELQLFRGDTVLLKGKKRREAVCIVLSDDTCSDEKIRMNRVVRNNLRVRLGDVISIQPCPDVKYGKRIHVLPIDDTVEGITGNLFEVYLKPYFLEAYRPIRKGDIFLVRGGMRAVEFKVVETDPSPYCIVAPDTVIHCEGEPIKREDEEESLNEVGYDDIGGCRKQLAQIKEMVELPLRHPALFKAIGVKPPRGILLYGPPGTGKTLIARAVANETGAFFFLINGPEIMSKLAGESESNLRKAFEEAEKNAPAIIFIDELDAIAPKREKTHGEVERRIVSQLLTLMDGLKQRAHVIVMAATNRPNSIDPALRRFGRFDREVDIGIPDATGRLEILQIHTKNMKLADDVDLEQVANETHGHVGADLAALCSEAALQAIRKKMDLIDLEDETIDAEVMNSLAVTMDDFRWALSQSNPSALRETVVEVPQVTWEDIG
T1 sequence (Q9BZE9 313-500 partner): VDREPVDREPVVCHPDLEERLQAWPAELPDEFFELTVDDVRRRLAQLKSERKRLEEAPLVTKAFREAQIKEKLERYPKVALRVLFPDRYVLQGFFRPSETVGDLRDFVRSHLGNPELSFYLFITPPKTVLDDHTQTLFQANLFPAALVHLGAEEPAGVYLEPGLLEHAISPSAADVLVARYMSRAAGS

Compound	X-ray crystal structure, 3.0 Å [1]	methylation assay, anti-monomethyl-lysine western blot (AtMETTL21D [2])	methylation assay, anti-Kme3 western blot (AtMETTL21D [3])
Nc1ncnc2c1ncn2[C@@H]1O[C@H](CSCC[C@H](N)C(=O)O)[C@@H](O)[C@H]1O [S-adenosyl-L-homocysteine]	the active site of METTL21D contains a S-adenosyl-L-homocysteine (SAH) molecule	–	–
C[S+](CC[C@H](N)C(=O)O)C[C@H]1O[C@@H](n2cnc3c(N)ncnc32)[C@H](O)[C@@H]1O (stereo partly drawn) [S-adenosyl-methionine]	–	AtMETTL21D monomethylated itself, as well as AtCDC48 in the presence of PUX1	substitution of leucine with valine in plant AtMETTL21D resulted in gain of trimethylation activity
